Measurements published in US20100086931A1, “METHOD FOR ASSAYING ACTION OF ANTITUMOR AGENT USING DECREASE IN GENE EXPRESSION LEVEL AS INDEX” (Eisai R&D Management Co., Ltd., priority 2007, published 2010).

Test system: peripheral blood mononuclear cells (PBMC)
Experiment: qPCR (TaqMan) measurement of mRNA expression in PBMC treated with compound A
Type: cell-based, human
Settings: untreated cells = 1, corrected by 18S rRNA
Excerpt: Since it is not easy to obtain a cancer tissue clinically, the measurement of the marker in hemocytes readily obtainable in peripheral blood would be more useful. Specifically peripheral blood was taken from three normal individuals (volunteers) and peripheral blood mononuclear cells were purified and treated with compound A, followed by measurement of change in expression of the gene (mRNA) by qPCR.
RNA samples were first prepared in accordance with the steps described in Example 2 (1) and (2).
Subsequently RNA was prepared to 30 ng/μl and cDNA was synthesized by using TaqMan Reverse Transcription Reagents (Applied Biosystems). The expression level of SLC25A19, TRAPPC4, GTF2H1, Id1, EDN1, ZCCHC6, HNRPA2B1, and HSPA9B was amplified with TaqMan Gene Expression Assays (catalog numbers below) (Applied Biosystems) as a probe by using TaqMan Universal PCR Master Mix (Applied Biosystems).
Reagents were prepared in accordance with the protocol, and measurement was carried out with ABI7900 (Applied Biosystems). Measured values were corrected by using the expression level of 18S rRNA (Hs99999901_s1, Applied Biosystems) as an internal control. The expression level of each gene was calculated with the expression level in the cells untreated with compound A as 1. […] In Table 3, for each gene evaluated, abbreviated name (Gene Symbol), accession number (Accession), alias name (Synonym), gene name (Gene Name), and the expression level upon treatment with varied concentration of E7107 (E7107 (nM)) were respectively shown.

## CCC(O)C(C)C1OC1CC(C)(O)/C=C/C=C(\C)C1OC(=O)CC(O)CCC(C)(O)C(OC(=O)N2CCN(C3CCCCCC3)CC2)/C=C/C1C (centres unmarked) [E7107, (8E,12E,14E)-7-((4-Cycloheptylpiperazin-1-yl)carbonyl)oxy-3,6,16,21-tetrahydroxy-6,10,12,16,20-pentamethyl-18,19-epoxytricosa-8,12,14-trien-11-olide]
3 nM
  EDN1 mRNA expression level (qPCR): 0.45
  GTF2H1 mRNA expression level (qPCR): 0.22
  HNRPA2B1 mRNA expression level (qPCR): 0.48
  HSPA9 mRNA expression level (qPCR): 0.39
  ID1 mRNA expression level (qPCR): 0.5
  SLC25A19 mRNA expression level (qPCR): 0.11
  TRAPPC4 mRNA expression level (qPCR): 0.12
  ZCCHC8 mRNA expression level (qPCR): 0.49
10 nM
  EDN1 mRNA expression level (qPCR): 0.2
  GTF2H1 mRNA expression level (qPCR): 0.07
  HNRPA2B1 mRNA expression level (qPCR): 0.29
  HSPA9 mRNA expression level (qPCR): 0.26
  ID1 mRNA expression level (qPCR): 0.15
  SLC25A19 mRNA expression level (qPCR): 0.02
  TRAPPC4 mRNA expression level (qPCR): 0.02
  ZCCHC8 mRNA expression level (qPCR): 0.19
30 nM
  EDN1 mRNA expression level (qPCR): 0.11
  GTF2H1 mRNA expression level (qPCR): 0.05
  HNRPA2B1 mRNA expression level (qPCR): 0.24
  HSPA9 mRNA expression level (qPCR): 0.17
  ID1 mRNA expression level (qPCR): 0.09
  SLC25A19 mRNA expression level (qPCR): 0.01
  TRAPPC4 mRNA expression level (qPCR): 0.01
